According to patent publication US20250332178A1, “METHODS OF TREATING MYCOBACTERIAL INFECTIONS USING TETRACYCLINE COMPOUNDS” (priority 2018, published 2025):
Converted amounts (≈) assume the structure as drawn. Read-outs that look alike come from different tables or passages of the source.

Tests used:
M. simiae = assay: MIC (CLSI broth dilution), slow-growing NTM isolates; format: cell-based; conditions: read-out: MIC
M. mucogenium group = assay: MIC (CLSI broth dilution), RGM isolates; format: cell-based; conditions: read-out: MIC
M. avium = assay: MIC (CLSI broth dilution), slow-growing NTM isolates; format: cell-based; conditions: Mycobacterium avium, read-out: MIC
M. chelonae = assay: MIC (CLSI broth dilution), RGM isolates; format: cell-based; conditions: Mycobacteroides chelonae, read-out: MIC
[1] = tested on: slow-growing NTM isolates; assay: MIC (CLSI broth dilution), all slow-growing NTM isolates; format: cell-based, nontuberculous mycobacteria; conditions: all slow-growing NTM isolates
[2] = tested on: Bacille Calmette Guerin (BCG); format: cell-based, Mycobacterium bovis; conditions: disk: 30 μg of linezolid
M. abscessus complex = assay: MIC (CLSI broth dilution), RGM isolates; format: cell-based; conditions: Mycobacteroides abscessus, read-out: MIC
M. fortuitum group = assay: MIC (CLSI broth dilution), RGM isolates; format: cell-based; conditions: Mycolicibacterium fortuitum, read-out: MIC
M. immunogenum group = assay: MIC (CLSI broth dilution), RGM isolates; format: cell-based; conditions: M. immunogenum, read-out: MIC
M. smegmatis group = assay: MIC (CLSI broth dilution), RGM isolates; format: cell-based; conditions: Mycolicibacterium smegmatis, read-out: MIC
M. arupense = assay: MIC (CLSI broth dilution), slow-growing NTM isolates; format: cell-based; conditions: isolate 11, Other; read-out: MIC
M. intracellulare = assay: as above; format: cell-based; conditions: Mycobacterium intracellulare, read-out: MIC
[3] = tested on: rapid-growing mycobacteria (RGM) isolates; assay: MIC (CLSI broth dilution), all RGM isolates; format: cell-based, nontuberculous mycobacteria; conditions: all 50 RGM isolates
M. chimaera = assay: MIC (CLSI broth dilution), slow-growing NTM isolates; format: cell-based; conditions: read-out: MIC

With CC(=O)NC[C@H]1CN(c2ccc(N3CCOCC3)c(F)c2)C(=O)O1 [linezolid] the MIC (M. simiae; isolate 13, Other) was over 32 µg/mL, the MIC (M. simiae; isolate 14, Other) was 32 µg/mL (≈ 94.9 µM) and the MIC (M. simiae; isolate 15, Other) was over 32 µg/mL. The MIC (M. mucogenium group; isolate 39, M. mucogenicum group, M. mucogenicum) was at most 2 µg/mL, the MIC (M. mucogenium group; isolate 40, M. mucogenicum group, M. mucogenicum) was at most 2 µg/mL and the MIC (M. mucogenium group; isolate 41, M. mucogenicum group, M. mucogenicum) was at most 2 µg/mL. It also gave an MIC (M. mucogenium group; isolate 42, M. mucogenicum group, M. mucogenicum) of at most 2 µg/mL, an MIC (M. mucogenium group; isolate 43, M. mucogenicum group, M. phocaicum) of at most 2 µg/mL and an MIC (M. mucogenium group; isolate 44, M. mucogenicum group, M. phocaicum) of at most 2 µg/mL. The MIC (M. mucogenium group; isolate 45, M. mucogenicum group, M. phocaicum) was at most 2 µg/mL, the MIC (M. mucogenium group; isolate 46, M. mucogenicum group, M. phocaicum) was at most 2 µg/mL and the MIC (M. mucogenium group; isolate 47, M. mucogenicum group, M. phocaicum) was 4 µg/mL (≈ 11.9 µM). The MIC (M. mucogenium group; isolate 48, M. mucogenicum group, M. phocaicum) was at most 2 µg/mL, the MIC (M. avium; isolate 1, MAC) was 32 µg/mL (≈ 94.9 µM) and the MIC (M. avium; isolate 2, MAC) was 32 µg/mL (≈ 94.9 µM). It also gave an MIC (M. avium; isolate 3, MAC) of over 32 µg/mL, an MIC (M. chelonae; isolate 18, M. chelonae) of 16 µg/mL (≈ 47.4 µM) and an MIC (M. chelonae; isolate 19, M. chelonae) of 8 µg/mL (≈ 23.7 µM). For the same compound, the MIC (M. chelonae; isolate 20, M. chelonae) was 4 µg/mL (≈ 11.9 µM), the MIC (M. chelonae; isolate 21, M. chelonae) was 16 µg/mL (≈ 47.4 µM) and the MIC (M. chelonae; isolate 22, M. chelonae) was 16 µg/mL (≈ 47.4 µM). The MIC50 ([1]; read-out: MIC50) was 32 µg/mL (≈ 94.9 µM), the MIC90 ([1]; read-out: MIC90) was over 32 µg/mL and the “Results/Observations (growth)” value [2] was “No growth on plate”. For the same compound, the MIC (M. abscessus complex; isolate 1, M. abscessus complex, erm gene type MAB30) was 16 µg/mL (≈ 47.4 µM), the MIC (M. abscessus complex; isolate 2, M. abscessus complex, erm gene type MAB30) was 16 µg/mL (≈ 47.4 µM) and the MIC (M. abscessus complex; isolate 3, M. abscessus complex, erm gene type MAB30) was 32 µg/mL (≈ 94.9 µM). For the same compound, the MIC (M. abscessus complex; isolate 4, M. abscessus complex, erm gene type massiliense) was 16 µg/mL (≈ 47.4 µM), the MIC (M. abscessus complex; isolate 5, M. abscessus complex, erm gene type massiliense/subsp. abs hybrid) was 4 µg/mL (≈ 11.9 µM) and the MIC (M. abscessus complex; isolate 6, M. abscessus complex, erm gene type Type 1 abscessus) was 32 µg/mL (≈ 94.9 µM). For the same compound, the MIC (M. abscessus complex; isolate 7, M. abscessus complex, erm gene type Type 1 abscessus) was 16 µg/mL (≈ 47.4 µM), the MIC (M. abscessus complex; isolate 8, M. abscessus complex, erm gene type Type 1 abscessus) was 16 µg/mL (≈ 47.4 µM) and the MIC (M. abscessus complex; isolate 9, M. abscessus complex, erm gene type Type 1 abscessus) was 32 µg/mL (≈ 94.9 µM). The MIC (M. abscessus complex; isolate 10, M. abscessus complex, erm gene type Type 1 abscessus) was 16 µg/mL (≈ 47.4 µM), the MIC (M. abscessus complex; isolate 11, M. abscessus complex, erm gene type Type 6 abscessus) was 8 µg/mL (≈ 23.7 µM) and the MIC (M. abscessus complex; isolate 12, M. abscessus complex, erm gene type Type 6 abscessus) was 8 µg/mL (≈ 23.7 µM). For the same compound, the MIC (M. abscessus complex; isolate 13, M. abscessus complex, erm gene type Type 6 abscessus) was 16 µg/mL (≈ 47.4 µM), the MIC (M. abscessus complex; isolate 14, M. abscessus complex, erm gene type Type 6 abscessus) was at most 2 µg/mL and the MIC (M. abscessus complex; isolate 15, M. abscessus complex, erm gene type Type 7 abscessus) was 16 µg/mL (≈ 47.4 µM). The MIC (M. abscessus complex; isolate 16, M. abscessus complex, erm gene type Type 7 abscessus) was at most 2 µg/mL, the MIC (M. abscessus complex; isolate 17, M. abscessus complex, erm gene type Type 8 abscessus) was 16 µg/mL (≈ 47.4 µM) and the MIC (M. fortuitum group; isolate 23, M. fortuitum group, M. fortuitum) was at most 2 µg/mL. For the same compound, the MIC (M. fortuitum group; isolate 24, M. fortuitum group, M. fortuitum) was 4 µg/mL (≈ 11.9 µM), the MIC (M. fortuitum group; isolate 25, M. fortuitum group, M. fortuitum) was 4 µg/mL (≈ 11.9 µM) and the MIC (M. fortuitum group; isolate 26, M. fortuitum group, M. porcinum) was at most 2 µg/mL. It also gave an MIC (M. fortuitum group; isolate 27, M. fortuitum group, M. porcinum) of 4 µg/mL (≈ 11.9 µM), an MIC (M. fortuitum group; isolate 28, M. fortuitum group, M. porcinum/M. boenickei) of at most 2 µg/mL and an MIC (M. fortuitum group; isolate 29, M. fortuitum group, M. porcinum/M. boenickei) of 4 µg/mL (≈ 11.9 µM). For the same compound, the MIC (M. fortuitum group; isolate 30, M. fortuitum group, M. porcinum/M. boenickei) was at most 2 µg/mL, the MIC (M. fortuitum group; isolate 31, M. fortuitum group, M. senegalense) was at most 2 µg/mL and the MIC (M. fortuitum group; isolate 32, M. fortuitum group, M. senegalense) was at most 2 µg/mL. The MIC (M. fortuitum group; isolate 33, M. fortuitum group, M. senegalense) was at most 2 µg/mL, the MIC (M. fortuitum group; isolate 34, M. fortuitum group, M. senegalense) was at most 2 µg/mL and the MIC (M. immunogenum group; isolate 35, M. immunogenum group) was 32 µg/mL (≈ 94.9 µM). The MIC (M. immunogenum group; isolate 36, M. immunogenum group) was 8 µg/mL (≈ 23.7 µM), the MIC (M. immunogenum group; isolate 37, M. immunogenum group) was 32 µg/mL (≈ 94.9 µM) and the MIC (M. immunogenum group; isolate 38, M. immunogenum group) was 32 µg/mL (≈ 94.9 µM). For the same compound, the MIC (M. smegmatis group; isolate 49, M. smegmatis group, M. goodii) was at most 2 µg/mL, the MIC (M. smegmatis group; isolate 50, M. smegmatis group, M. wolinskyi) was 4 µg/mL (≈ 11.9 µM) and the MIC (M. arupense) was 32 µg/mL (≈ 94.9 µM). It also gave an MIC (M. intracellulare; isolate 6, MAC) of 32 µg/mL (≈ 94.9 µM), an MIC (M. intracellulare; isolate 7, MAC) of 16 µg/mL (≈ 47.4 µM) and an MIC (M. intracellulare; isolate 8, MAC) of 32 µg/mL (≈ 94.9 µM). For the same compound, the MIC (M. intracellulare; isolate 9, MAC) was 32 µg/mL (≈ 94.9 µM), the MIC (M. intracellulare; isolate 10, MAC) was over 32 µg/mL and the MIC50 ([3]; read-out: MIC50) was 4 µg/mL (≈ 11.9 µM). The MIC90 ([3]; read-out: MIC90) was 32 µg/mL (≈ 94.9 µM), the MIC (M. chimaera; isolate 4, MAC) was 16 µg/mL (≈ 47.4 µM) and the MIC (M. chimaera; isolate 5, MAC) was 32 µg/mL (≈ 94.9 µM).
